Columns and labels:
[1] = tested on: HeLa cells; experiment: HeLa cell growth inhibition, MTT (Example 2); assay type: cell-based; settings: Homo sapiens, 72 h, mean ± SD of at least two measurements in duplicates unless noted
Method: (§1) HeLa cells (human cervical cancer cells) were obtained from American Type Culture Collection (ATCC) and maintained in Dulbecco's modified Eagle medium (DMEM, Invitrogen, Carlsbad, Calif.) supplemented with 10% (v/v) fetal calf serum (Sigma, St. Louis, Mo.), 10 μg/mL penicillin and 10 μg/mL streptomycin (Invitrogen, Carlsbad, Calif.) at 37° C. under 5% CO2. HeLa cells (2,000 cells/well) were plated in 96-well plates the day before experiment. On the day of experiment, different concentrations of the drugs (final concentration 10^−8-10^−4 M) in duplicates were added to the cells and the cells were further incubated for 72 h. Then, the number of live cells was quantified by 3-(4,5-dimethyl-2-thiazolyl)-2,5-diphenyl-2H-tetrazolium bromide (MIT reagent, Sigma, St. Louis, Mo.).
(§2) The amount of reduced MTT formazan generated by live cells was determined by its absorbance at 570 nm after subtracting the background absorbance at 690 nm. The percent of cell growth was expressed as (A570(treated)−A570(initial))/(A570(vehicle treated)−A570(initial))×100, where A570(initial) represents initial cell population when drugs are added. The GI50 were derived from non-linear regression analysis of the dose-response curve using Prism 4.0 (GraphPad).

[2] = tested on: MCF-7 cells; experiment: MCF-7 cell growth inhibition, MTT (Example 2); assay type: cell-based; settings: Homo sapiens, MCF7, 72 h, mean ± SD of at least two measurements in duplicates unless noted
Method: as §1
(§3) Following the same procedure, identical experiments were performed using, A549 cells (human lung cancer cells) and MCF-7 cells (human breast cancer cells).
as §2

[3] = tested on: A549 cells; experiment: A549 cell growth inhibition, MTT (Example 2); assay type: cell-based; settings: Homo sapiens, 72 h, mean ± SD of at least two measurements in duplicates unless noted
Method: as §1, §3, §2

[4] = tested on: A549 cells; experiment: A549 cancer cell growth inhibition, MTT (Example 6); assay type: cell-based; settings: Homo sapiens, 72-h incubation
Method: (§4) HeLa, A549, and MCF-7 cells, in a 96-well plate (1.0×10^5/well) were treated with different concentrations of the compounds for 72 h. Then the number of cells was quantified by incubating cells with MTT reagent (Sigma, 50 μg/mL) for 3 h. The reduced formazan product was solubilized in DMSO to be measured spectrophotometrically at 570 nm.

[5] = tested on: MCF-7 cells; experiment: MCF-7 cancer cell growth inhibition, MTT (Example 6); assay type: cell-based; settings: Homo sapiens, MCF7, 72-h incubation
Method: as §4

[6] = tested on: HeLa cells; experiment: HeLa cancer cell growth inhibition, MTT (Example 6); assay type: cell-based; settings: Homo sapiens, 72-h incubation
Method: as §4

[7] = Maximum tolerated dose in nude mice; assay type: in vivo; settings: for tolerability: ten days
Method: The maximum tolerated dose (MTD) of compound 4 and compound 7 was evaluated in nude mice.
In this study 7 groups were established, each with three mice per group. 10 μl/g of a mixture of 10 ml of DMSO and 10 ml sterile saline was administered per day to group I, the control group; compound 4 was administered intravenously at dose levels of 10, 25, and 50 mg/kg and a dose volume of 10 μl/g per day to groups 2-4 respectively; and compound 7 was administered intravenously at dose levels of 10, 25, and 50 mg/kg and a dose volume of 10 μl/g per day to groups 5-7 respectively. The study was run for ten days.
Animals were monitored individually up to 7 days after final treatment. Daily general health observations included animal mortality, appearance, spontaneous activity, body posture, and food and water intake. Lesions and any other adverse reactions were recorded.

[8] = tested on: CREB-mediated gene transcription; experiment: CREB renilla luciferase reporter assay in HEK293T cells; assay type: cell-based; settings: Homo sapiens, HEK-293T, forskolin 10 μM, read-out: CREB transcription inhibition IC50
Method: HEK293T cells in a 10-cm plate were transfected with pCRE-RLuc (6.0 μg) with Lipofectamine™ 2000 (Invitrogen, Carlsbad, Calif.) according to manufacturer's protocol. After 3 h, the transfected cells were collected and replated into a 96-well plate (4×10^4 cells/well). The cells were allowed to attach to the bottom of the wells for overnight, when compounds of different concentrations were added to the cells. Forskolin (final concentration of 10 μM, Alexis Biochemicals, San Diego, Calif.) was added 30 min after the addition of the compounds. The cells were then incubated at 37° C. for 4.5 h and the media were removed. The cells were then lysed in renilla luciferase lysis buffer (Promega, Madison, Wis.). To measure luciferase activity, five μL of the lysate was combined with 30 μL of coelenterazine (Nanolight, Pinetop, Ariz.) solution in PBS (10 μg/mL). The sample protein concentration was determined by Dye Reagent Concentrate (Bio-Rad, Hercules, Calif.). The luciferase activity was normalized to protein content in each well and expressed as RLU/μg protein.

[9] = target: T1, KIX-KID interaction (Homo sapiens, UniProt Q92793); experiment: In vitro renilla luciferase complementation assay; assay type: biochemical; settings: 4° C., 24 h, read-out: KIX-KID interaction inhibition IC50
T1 construct: RLucC-KIX (15 ng) and KID-RLucN-containing cell lysates; made in house
Method: RLucC-KIX (15 ng) and KID-RLucN-containing cell lysates (0.5 mg) were mixed together in renilla luciferase lysis buffer (Promega, Madison, Wis.) in the presence of different concentrations of compounds. The final volume of the incubation mixture is 30 μL. The mixture was incubated at 4° C. for 24 h. Then renilla luciferase activity was measured by combining 5 μL of incubation mixture with 30 μL of coelenterazine solution in PBS (pH 7.4, 10 μg/mL).

T1 sequence (Q92793 587-666 limits assumed): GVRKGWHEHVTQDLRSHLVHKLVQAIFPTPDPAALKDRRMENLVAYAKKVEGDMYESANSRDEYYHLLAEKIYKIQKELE

Compound: NCCCOc1cc2ccccc2cc1C(=O)Nc1ccc(Cl)cc1
- GI50 [1]: 1470 ± 420 nM
- GI50 [2]: 0.84 ± 0.18 µM
- GI50 [3]: 3.42 ± 0.43 µM

Compound: O=C(Nc1ccc(F)cc1)c1cc2ccccc2cc1O
- GI50 [1]: 2060 ± 310 nM
- GI50 [2]: 2.34 ± 0.51 µM
- GI50 [3]: 6.78 ± 1.32 µM

Compound: O=C(Nc1ccc(Br)cc1)c1cc2ccccc2cc1O
- GI50 [1]: 2120 ± 7 nM
- GI50 [2]: 1.83 ± 0.7 µM
- GI50 [3]: 3.98 ± 0.65 µM

Compound: O=C(Nc1ccc(I)cc1)c1cc2ccccc2cc1O
- GI50 [1]: 3740 ± 810 nM
- GI50 [2]: 9.76 ± 6.31 µM
- GI50 [3]: 5.45 ± 0.89 µM

Compound: O=C(Nc1ccc(C(F)(F)F)cc1)c1cc2ccccc2cc1O
- GI50 [1]: 2400 ± 360 nM
- GI50 [2]: 3.62 ± 2.56 µM
- GI50 [3]: 4.15 ± 0.5 µM

Compound: O=C(Nc1ccc([N+](=O)[O-])cc1)c1cc2ccccc2cc1O
- GI50 [1]: 2940 ± 700 nM
- GI50 [2]: 1.5 ± 0.16 µM
- GI50 [3]: 3.28 ± 0.31 µM

Compound: Nc1ccc(NC(=O)c2cc3ccccc3cc2O)cc1
- GI50 [1]: 67200 ± 46300 nM
- GI50 [2]: 28 ± 4.63 µM
- GI50 [3]: 51.6 ± 11.9 µM

Compound: O=C(Nc1ccccc1)c1cc2ccccc2cc1O
- GI50 [1]: 26900 nM
- GI50 [2]: 4.87 ± 1.27 µM
- GI50 [3]: 56.9 ± 7.75 µM

Compound: O=C(Nc1ccc(O)cc1)c1cc2ccccc2cc1O
- GI50 [1]: 42300 ± 6700 nM
- GI50 [2]: 6.8 ± 6.34 µM
- GI50 [3]: 28.1 µM

Compound: COc1ccc(NC(=O)c2cc3ccccc3cc2O)cc1
- GI50 [1]: 8320 ± 550 nM
- GI50 [2]: 6.55 ± 2.28 µM
- GI50 [3]: 85.7 ± 8.74 µM

Compound: O=C(Nc1ccc(F)c(F)c1)c1cc2ccccc2cc1O
- GI50 [1]: 2180 ± 170 nM
- GI50 [2]: 2.09 ± 0.82 µM
- GI50 [3]: 3.57 ± 0.23 µM

Compound: O=C(Nc1ccc(F)c(Cl)c1)c1cc2ccccc2cc1O
- GI50 [1]: 2440 ± 560 nM
- GI50 [2]: 5.21 ± 4.92 µM
- GI50 [3]: 3.76 ± 0.31 µM

Compound: CN(C(=O)c1cc2ccccc2cc1O)c1ccc(Cl)cc1
- GI50 [1]: 12900 ± 4340 nM
- GI50 [2]: 13.6 ± 4.9 µM
- GI50 [3]: 29.5 ± 5.27 µM

Compound: COc1cc2ccccc2cc1C(=O)Nc1ccc(Cl)cc1
- GI50 [1]: 5200 ± 610 nM
- GI50 [2]: 24.8 ± 0.94 µM
- GI50 [3]: 62 ± 15.5 µM

Compound: O=C(Nc1ccccn1)c1cc2ccccc2cc1O
- GI50 [1]: 11500 ± 8900 nM
- GI50 [2]: 6.25 ± 5.89 µM
- GI50 [3]: 75.8 ± 23.1 µM

Compound: O=C(Nc1ccncc1)c1cc2ccccc2cc1O
- GI50 [1]: 6140 ± 3030 nM
- GI50 [2]: 15.8 ± 5.29 µM
- GI50 [3]: 25 ± 10.7 µM

Compound: O=C(Nc1cnccn1)c1cc2ccccc2cc1O
- GI50 [1]: 12600 ± 12000 nM
- GI50 [2]: 12.7 ± 13.2 µM
- GI50 [3]: 32.2 ± 2.88 µM

Compound: COc1cc2ccccc2cc1C(=O)Nc1ccc(Cl)cc1OC(=O)c1cc2ccccc2cc1OCCCN
- GI50 [4]: 12.9 µM
- GI50 [5]: 19400 nM
- GI50 [6]: 2330 nM

Compound: COc1cc2ccccc2cc1C(=O)Oc1cc(Cl)ccc1NC(=O)c1cc2ccccc2cc1OCCCN
- GI50 [4]: 12.9 µM
- GI50 [5]: 29400 nM
- GI50 [6]: 3120 nM

Compound: Cl.Cl.NCCCOc1cc(Cl)ccc1NC(=O)c1cc2ccccc2cc1OCCCN [Compound 4, 3-(3-Aminopropoxyl)-N-(2-(3-aminopropoxy)-4-chlorophenyl)-2-naphthamide dihydrochloride]
- tolerability ([7]; 10 mg/kg per day intravenously): tolerated very well
- tolerability ([7]; 25 mg/kg per day intravenously): tolerated very well
- tolerability ([7]; 50 mg/kg per day intravenously): minor toxicity
- body weight loss ([7]; 50 mg/kg, two of three animals at day 5 and day 6, recovery from day 7): 10-20%

Compound: NCCCOc1cc2ccccc2cc1C(=O)Nc1ccc(Cl)cc1OC(=O)c1cc2ccccc2cc1OCCCN [Compound 7]
- tolerability ([7]; 10 mg/kg per day intravenously): tolerated very well
- tolerability ([7]; 25 mg/kg per day intravenously): tolerated very well
- local effect at injection site ([7]; 50 mg/kg intravenously): severe irritative effect on tail skin
- tolerability ([7]; 50 mg/kg per day intravenously): tolerated very well

Compound: O=C(Nc1ccc(Cl)cc1)c1cc2ccccc2cc1O [drawing 32]
- GI50 [1]: 2520 ± 770 nM
- GI50 [2]: 2.76 ± 0.35 µM
- GI50 [3]: 2.88 ± 0.35 µM

Compound: O=C(Nc1ccc(Cl)cc1)c1cc2ccccc2cc1OP(=O)(O)O [drawing 33]
- GI50 [1]: 2530 ± 580 nM
- GI50 [2]: 1.93 µM
- GI50 [3]: 1.94 µM

Compound: COc1cc2ccccc2cc1C(=O)Nc1ccc(Cl)cc1OC(=O)c1cc2ccccc2cc1OC [drawing 35]
- GI50 [1]: 270 ± 190 nM
- GI50 [2]: 2.96 ± 0.66 µM
- GI50 [3]: 5.25 ± 0.75 µM

Compound: NCCCOc1cc(Cl)ccc1NC(=O)c1cc2ccccc2cc1OCCCN [drawing 36]
- GI50 [1]: 480 ± 350 nM
- GI50 [2]: 1.65 ± 0.42 µM
- GI50 [3]: 2.57 ± 0.41 µM

Compound: O=C(Nc1ccc(Cl)cc1)c1cc2ccccc2cc1O [drawing 53]
- IC50 [8]: 2200 nM
- GI50 [4]: 4.58 ± 1.52 µM
- GI50 [5]: 2560 ± 450 nM
- GI50 [6]: 2970 ± 740 nM
- IC50 [9]: 2.41 µM

Compound: NCCCOc1cc(Cl)ccc1NC(=O)c1cc2ccccc2cc1OCCCN [drawing 54]
- IC50 [8]: 22900 nM
- GI50 [4]: 1.84 ± 0.11 µM
- GI50 [5]: 1690 ± 390 nM
- GI50 [6]: 710 ± 210 nM
- IC50 [9]: 14.7 µM

Compound: COc1cc2ccccc2cc1C(=O)Nc1ccc(Cl)cc1OC(=O)c1cc2ccccc2cc1OC [drawing 55]
- IC50 [8]: 1140 nM
- GI50 [4]: 8.78 ± 2.55 µM
- GI50 [5]: 3380 ± 490 nM
- GI50 [6]: 330 ± 70 nM
- IC50 [9]: 0.25 µM

Compound: NCCCOc1cc2ccccc2cc1C(=O)Nc1ccc(Cl)cc1OC(=O)c1cc2ccccc2cc1OCCCN [drawing 56]
- IC50 [8]: 2740 nM
- GI50 [4]: 0.59 ± 0.02 µM
- GI50 [5]: 420 ± 150 nM
- GI50 [6]: 290 ± 50 nM
- IC50 [9]: 7.08 µM
